# From the supplement of paper PMC13380429
# Tests used:
# Settings in all cases: 72 h
# Caco-2 [1] = experiment: cell viability relative to DMSO; higher = less toxic
# Calu-3 [2] = experiment: as above
# HepG2 [3] = experiment: as above
# U2OS [4] = experiment: as above
# Vero E6 [5] = experiment: as above
# Caco-2 [6] = experiment: relative viability EC50 (midpoint between 100% and the lowest measured viability); higher = less toxic
# Calu-3 [7] = experiment: as above
# HepG2 [8] = experiment: as above
# U2OS [9] = experiment: as above
# Vero E6 [10] = experiment: as above
# Caco-2 [11] = experiment: drug sensitivity score (DSS) for viability; higher = more toxic; extreme values may be limits of the assay
# Calu-3 [12] = experiment: as above
# HepG2 [13] = experiment: as above
# U2OS [14] = experiment: as above
# Vero E6 [15] = experiment: as above
Compound,cell viability (Caco-2 [1]; 1 nM),cell viability (Caco-2 [1]; 10 nM),cell viability (Caco-2 [1]; 100 nM),cell viability (Caco-2 [1]; 1000 nM),cell viability (Caco-2 [1]; 10000 nM),cell viability (Calu-3 [2]; 1 nM),cell viability (Calu-3 [2]; 10 nM),cell viability (Calu-3 [2]; 100 nM),cell viability (Calu-3 [2]; 1000 nM),cell viability (Calu-3 [2]; 10000 nM),cell viability (HepG2 [3]; 1 nM),cell viability (HepG2 [3]; 10 nM),cell viability (HepG2 [3]; 100 nM),cell viability (HepG2 [3]; 1000 nM),cell viability (HepG2 [3]; 10000 nM),cell viability (U2OS [4]; 1 nM),cell viability (U2OS [4]; 10 nM),cell viability (U2OS [4]; 100 nM),cell viability (U2OS [4]; 1000 nM),cell viability (U2OS [4]; 10000 nM),cell viability (Vero E6 [5]; 1 nM),cell viability (Vero E6 [5]; 10 nM),cell viability (Vero E6 [5]; 100 nM),cell viability (Vero E6 [5]; 1000 nM),cell viability (Vero E6 [5]; 10000 nM),relative viability EC50 (Caco-2 [6]),relative viability EC50 (Calu-3 [7]),relative viability EC50 (HepG2 [8]),relative viability EC50 (U2OS [9]),relative viability EC50 (Vero E6 [10]),drug sensitivity score (Caco-2 [11]),drug sensitivity score (Calu-3 [12]),drug sensitivity score (HepG2 [13]),drug sensitivity score (U2OS [14]),drug sensitivity score (Vero E6 [15])
O=c1[nH]c2cc(C(F)(F)F)c(N3CCOCC3)cc2n(CP(=O)(O)O)c1=O,102%,92.8%,98.5%,106%,93.9%,108%,106%,98%,99.7%,109%,95.4%,104%,107%,90.5%,99.1%,97.3%,102%,103%,104%,99.7%,105%,99.8%,99.6%,102%,101%,> 10 µM,> 10 µM,> 10 µM,> 10 µM,> 10 µM,0,0,0,0,0
O=C(NC1CCN(Cc2ccccc2)CC1)c1ccc(I)cc1 [4-IBP],104%,101%,99.4%,103%,88.8%,104%,104%,104%,95.9%,102%,94.5%,108%,104%,105%,68%,102%,99.9%,101%,97.6%,98.8%,109%,106%,107%,101%,93.2%,> 10 µM,> 10 µM,,> 10 µM,> 10 µM,0,0,1.2,0,0
Cc1c(O)c(=O)n(-c2ccccc2)n1C [4-hydroxy-phenazone],98.7%,98.7%,90.2%,92.3%,90.6%,107%,105%,101%,96.8%,102%,102%,103%,110%,96.6%,115%,,,,,,98%,98.3%,103%,103%,92.9%,> 10 µM,> 10 µM,> 10 µM,,> 10 µM,0,0,0,,0
